Laboratory results reported in patent US20240199728A1, “METHODS OF TREATING OBESITY, DIABETES, AND LIVER DYSFUNCTION” (REGENERON PHARMACEUTICALS, INC., priority 2022, published 2024).

Key:
Assay type in all cases: in vivo
[1] = tested on: obese adult male cyno non-human primate (NHP) with NASH; test: Obese NHP study of body weight, liver and metabolic effects of adding myostatin/activin A blockade onto GLP-1R agonism; conditions: week 12
Experimental: An obese NHP study of the body weight, liver and metabolic effects of adding on myostatin/activin A blockade onto GLP-1R agonism was carried out. FIG. 10 sets forth the study and timeline for obese adult male cyno non-human primate (NHP) with NASH, stratified based on body weight and % body fat, n=10 per arm.
The treatment groups were: • vehicle; • Semaglutide; • Anti-Myostatin+anti-Activin A; • Semaglutide+anti-Myostatin; and • Semaglutide+anti-Myostatin+anti-Activin A. REGN1033 is an anti-Myostatin antibody, and REGN2477 is an anti-Activin A antibody. The GLP-1 agonist employed was Semaglutide. Semaglutide was administered at 10 μg/kg. Anti-Myostatin antibody was administered at 50 mg/kg. Anti-Activin A antibody was administered at 50 mg/kg.
Postmenopausal women received 10 mg/kg (anti-myostatin+anti-activin A) IV, Q2W. Thigh muscle volume was measured via MRI, and android fat mass was measured via iDXA, both over 30 weeks. Obese non-human primates received 50 mg/kg anti-myostatin+50 mg/kg anti-activin A (QW). Total lean mass was measured via iDXA, and total fat mass was measured via iDXA, both over 28 weeks. […]

[2] = tested on: diet-induced obesity (DIO) mouse model; test: Fed blood glucose, insulin and glucagon, DIO mice
Source text: (§1) DIO mice that have been fed a high fat diet for at least 20 weeks were distributed into 4 different groups balanced by body fat content as determined by MRI and blood glucose. On day 0, all mice were implanted with osmotic pumps (Alzet, Cat #2004), in which the stainless steel flow moderators were replaced with PEEK tubing (DURECT Corporation, Cat #0002496) to allow for MRI measurements during the experiment. Pumps for groups 1 and 2 contained PBS, while pumps used for groups 3 and 4 contained Semaglutide (0.833 mg/mL for […] infusion). The next day (day 1), mice were injected with their respective antibodies: group 1 and group 3: Isotype control (at 20 mg/kg); group 2 and group 4: anti-GDF8 antibody (REGN1033) & anti-Activin A antibody (REGN2477) (at 10 mg/kg each). The antibody injections were repeated on days 4 and 7 and once weekly after that.
(§2) Body composition using MRI and fed blood glucose using a glucometer from tail bleeds were measured weekly in the morning. Mice were also bled for insulin measurements on a weekly basis. An oral glucose tolerance test (OGTT) was performed on day 23. For the OGTT, mice were fasted for 4 hours, and baseline glucose was measured. Subsequently, 2 g/kg glucose was administered to the mice by oral gavage, and glucose was measured again after 30, 60, 90, and 120 minutes. On day 26, 6 hour fasted blood glucose was measured, and mice were bled for insulin assessment as described above. At the end of the study (day 28/29), mice were sacrificed, and tissue (skeletal muscle, adipose, pancreas, heart, spleen, liver) was collected for weight and further analysis. Mouse plasma was used to measure circulating levels of ALT, AST, non-esterified fatty acids (NEFAs), triglycerides (trigs), and cholesterol (chol) on the Advia Chemistry Analyzer from Siemens. One lobe of the liver was fresh frozen to allow for triglyceride extraction and quantification using standard protocols. Another lobe of the liver and the pancreas were fixed in 10% formalin, embedded in paraffin, and sectioned for liver histology. H&E, as well as smooth muscle actin (SMA), staining was performed, and slides were subjected to quantification using Halo software. Paraffin sections of the pancreas were stained for insulin and glucagon to determine beta cell and alpha cell mass, respectively, using Halo software.

[3] = tested on: diet-induced obesity (DIO) mouse model; test: Plasma ALT, AST, NEFA, triglycerides, cholesterol (Advia Chemistry Analyzer), DIO mice; conditions: end of study, first value of group (mean)
Source text: as §1
as §2, with “Another lobe of the liver and the pancreas were fixed in 10% formalin, embedded in paraffin, and sectioned for liver histology.” left out, “Paraffin sections of the pancreas were stained for insulin and glucagon to determine beta cell and alpha cell mass, respectively, using Halo software.” left out

[4] = tested on: diet-induced obesity (DIO) mouse model; test: Body weight and body composition (MRI) over time in diet-induced obesity (DIO) mouse model; design: Body weight changes over time, Mean / Lean mass changes over time, Mean / Fat mass changes over time, Mean: unit not given here; conditions: DIO mice; for Fat mass changes over time, Mean / Lean mass changes over time, Mean: MRI
Source text: as §1, §2

[5] = tested on: diet-induced obesity (DIO) mouse model; test: Liver triglyceride extraction and liver histology (H&E, SMA staining), DIO mice; conditions: end of study
Source text: as §1, §2

[6] = tested on: diet-induced obesity (DIO) mouse model; test: Oral glucose tolerance test (OGTT) and fasted blood glucose, DIO mice
Source text: as §1
as §2, with “Subsequently, 2 g/kg glucose was administered to the mice by oral gavage, and glucose was measured again after 30, 60, 90, and 120 minutes.” left out

[7] = tested on: diet-induced obesity (DIO) mouse model; test: Final tissue/organ weights at end of study (day 28/29), DIO mice; conditions: control group = 0.00 (FIG. 2B: % change vs. control), in %
Source text: DIO mice that have been fed a high fat diet for at least 20 weeks were distributed into 4 different groups balanced by body fat content as determined by MRI and blood glucose. On day 0, all mice were implanted with osmotic pumps (Alzet, Cat #2004), in which the stainless steel flow moderators were replaced with PEEK tubing (DURECT Corporation, Cat #0002496) to allow for MRI measurements during the experiment. Pumps for groups 1 and 2 contained PBS, while pumps used for groups 3 and 4 contained Semaglutide (0.833 mg/mL for 7 ug/day infusion). […]
Body composition using MRI and fed blood glucose using a glucometer from tail bleeds were measured weekly in the morning. […] For the OGTT, mice were fasted for 4 hours, and baseline glucose was measured. Subsequently, 2 g/kg glucose was administered to the mice by oral gavage, and glucose was measured again after 30, 60, 90, and 120 minutes. On day 26, 6 hour fasted blood glucose was measured, and mice were bled for insulin assessment as described above. […] One lobe of the liver was fresh frozen to allow for triglyceride extraction and quantification using standard protocols. […] H&E, as well as smooth muscle actin (SMA), staining was performed, and slides were subjected to quantification using Halo software. […]

In the case of Semaglutide, the “lean mass (in words)” value [1] is reported as “lean mass loss”, the “fed insulin over time, Mean” value ([2]; Day 6) is reported as 6.2175 and the “fed insulin over time, Mean” value ([2]; Day 13) is reported as 2.296. The “Fed glucose over time, Mean” value ([2]; Day 20, in mg/dL (unit assumed)) was 259.5, the “fed insulin over time, Mean” value ([2]; Day −5 (before treatment)) was 16.285 and the “Fed glucagon levels at day 20, Mean” value ([2]; day 20) was 4.106. For the same substance, the “Plasma measurements - Liver panel, AST” value [3] was 103.625, the “Plasma measurements - Liver panel, Chol” value [3] was 193.75 and the “Plasma measurements - Liver panel, NEFA” value [3] was 0.5837. The “Body weight changes over time, Mean” value ([4]; Day 5) was −11.33, the “Body weight changes over time, Mean” value ([4]; Day 6) was −12.46 and the “Body weight changes over time, Mean” value ([4]; Day 9) was −15.25. The “Body weight changes over time, Mean” value ([4]; Day 12) was −16.20, the “Body weight changes over time, Mean” value ([4]; Day 13) was −15.72 and the “Body weight changes over time, Mean” value ([4]; Day 14) was −17.49. The “Body weight changes over time, Mean” value ([4]; Day 19) was −15.74, the “Body weight changes over time, Mean” value ([4]; Day 23) was −13.16 and the “Body weight changes over time, Mean” value ([4]; Day 26) was −12.53. The “Body weight changes over time, Mean” value ([4]; Day −6 (before treatment)) was 0, the “Fat mass changes over time, Mean” value ([4]; Day 5) was −23.75 and the “Lean mass changes over time, Mean” value ([4]; Day 5) was −3.50. For the same substance, the “Fat mass changes over time, Mean” value ([4]; Day 12) was −33.78, the “Lean mass changes over time, Mean” value ([4]; Day 12) was −4.09 and the “Fat mass changes over time, Mean” value ([4]; Day 19) was −34.24. The “Lean mass changes over time, Mean” value ([4]; Day 19) was −2.43, the “Lean mass changes over time, Mean” value ([4]; Day 25) was −1.93 and the “Fat mass changes over time, Mean” value ([4]; Day 26) was −29.52. The “Fat mass changes over time, Mean” value ([4]; Day −6 (before treatment)) was 0, the “Lean mass changes over time, Mean” value ([4]; Day −6 (before treatment)) was 0 and the “decrease in body weight as compared with the control group” value ([4]; vs control group) was “approximately 14%”. For the same substance, the “decrease in lean mass as compared with the control group” value ([4]; vs control group) was 3-4%, the “loss in fat mass compared to the control group” value ([4]; vs control group (Group 1)) was “approximately 18%” and the “Liver fat area, Mean” value ([5]; H&E liver histology) was 28.34. The “SMA positive area (% of fat-free area), Mean” value ([5]; liver SMA staining) was 6.942 % of fat-free area, the “SMA positive area (normalized to nuclei amount), Mean” value ([5]; liver SMA staining) was 14.32 and the “Liver triglycerides, Mean” value ([5]; liver tissue) was 153.6. For the same substance, the “Area under the curve of OGTT at day 23, Mean” value ([6]; 2 g/kg glucose oral gavage, day 23) was 27698, the “4 hrs fasted glucose levels at day 23, Mean” value ([6]; 4 hrs fasted, day 23, in mg/dL (unit assumed)) was 192.1 and the “6 hrs fasted glucose levels at day 26, Mean” value ([6]; 6 hrs fasted, day 26, in mg/dL (unit assumed)) was 172.6. For the same substance, the “oGTT measurement on day 23 (glucose), Mean” value (shortened to “oGTT measurement”) ([6]; Time 0 min) was 192.125, the “oGTT measurement” value ([6]; Time 15 min) was 433.5 and the “oGTT measurement” value ([6]; Time 30 min) was 310.75. For the same substance, the “oGTT measurement” value ([6]; Time 60 min) was 230.75, the “Final organ weights, Gonadal Fat, Mean” value [7] was −10.56 and the “Final organ weights, Subq Fat, Mean” value [7] was −22.58.
